Measurements as given in patent publication EP4803519A1, “NOVEL PRMT5 INHIBITOR AND USE THEREOF” (Shanghai Apeiron Therapeutics Company Limited, priority 2023, dated 2025).

Assays:
Assay type in all cases: cell-based
HCT-116 wild-type cells = assay: Inhibitory activity on proliferation of HCT-116 wild-type cells (Cell-Titer Glo); details: Homo sapiens, 144 h, incubated 6 d, 0-10,000 nM
Procedure: (§1) Materials and cells: HCT-116 wild-type cells were purchased from Kyinno Biotechnology (China); RPMI-1640 medium, and fetal bovine serum were purchased from Thermo Fisher (United States); 384-well plates were purchased from PerkinElmer (United States); Cell-Titer Glo kit was purchased from Promega (United States).
Cell culture: HCT-116 wild-type cells were cultured in RPMI-1640 medium containing 10% fetal bovine serum at 37°C and 5% carbon dioxide. Only cells in the logarithmic growth phase could be used for the test.
Test of cell proliferation activity: Cell-Titer Glo kit was used to test the proliferation inhibitory activity of the compound on HCT-116 wild-type cells. The cell concentration was adjusted, rendering that cells were inoculated into a 384-well plate at 40 µL per well and incubated overnight at 37°C and 5% carbon dioxide. 80 nL of the compound was added to each well to reach a final concentration of 0-10,000 nM (starting concentration 10,000 nM, 2.5-fold dilution, 10 points), and the cell plate with 0.2% DMSO content was incubated at 37°C and 5% carbon dioxide for 6 d. 40 µL of Cell-Titer Glo reagent was added to test cell viability.

[1] = system: HCT-116 MTAP(-/-)deleted cells; assay: Inhibitory activity on proliferation of HCT-116 MTAP(-/-)deleted cells (Cell-Titer Glo); details: Homo sapiens, 144 h, incubated 6 d, 0-1,000 nM
Procedure: as §1, with “MTAP(-/-)deleted” for “wild-type”
Cell culture: HCT116 MTAP(-/-)deleted cells were cultured with RPMI 1640 medium containing 10% fetal bovine serum at 37°C in 5% carbon dioxide. Only cells in the logarithmic growth phase could be used for the test.
(§2) Test of inhibitory activity on cell proliferation: The Cell-Titer Glo kit was used to test the proliferation inhibitory activity of the compounds on HCT-116 MTAP(-/-)deleted cells. The cell concentration was adjusted, rendering that cells were inoculated into a 384-well plate at 40 µL per well and incubated overnight at 37°C and 5% carbon dioxide. 80 nL of the compound was added into each well to reach a final concentration of 0-1,000 nM (starting concentration 1,000 nM, 2.5-fold dilution, 10 points), and the cell plate with 0.2% DMSO content was incubated at 37°C and 5% carbon dioxide for 6 d. 40 µL of Cell-Titer Glo reagent was added to test cell viability.

[2] = system: LU99 MTAP overexpressing cells; assay: Inhibitory activity on proliferation of LU99 MTAP overexpressing cells (Cell-Titer Glo); details: Homo sapiens, Lu-99, 144 h, incubated 6 d, 0-10,000 nM
Procedure: (§3) Materials and cells: LU99 MTAP overexpressing cell line was purchased from Kyinno Biotechnology (China); cell culture medium and fetal bovine serum were purchased from Thermo Fisher Scientific (USA); 384-well plates were purchased from PerkinElmer (USA); Cell-Titer Glo kits were purchased from Promega (USA).
Cell culture: LU99 MTAP overexpressing cells were cultured with medium containing 10% fetal bovine serum at 37°C in 5% carbon dioxide. Only cells in the logarithmic growth phase could be used for the test.
Test of inhibitory activity on cell proliferation: The Cell-Titer Glo kit was used to test the proliferation inhibitory activity of the compounds on LU99 MTAP overexpressing cells. The cell concentration was adjusted, rendering that cells were inoculated into a 384-well plate at 40 µL per well and incubated overnight at 37°C and 5% carbon dioxide. 40 nL of the compound was added to each well to reach a final concentration of 0-10,000 nM (starting concentration 10,000 nM, 2.5-fold dilution, 10 points), and the cell plate with 0.2% DMSO content was incubated at 37°C and 5% carbon dioxide for 6 d. 40 µL of Cell-Titer Glo reagent was added to test cell viability.

[3] = system: LU99 MTAP(-/-)deleted cells; assay: Inhibitory activity on proliferation of LU99 MTAP(-/-)deleted cells (Cell-Titer Glo); details: Homo sapiens, Lu-99, 144 h, incubated 6 d, 0-1,000 nM
Procedure: as §3, with “deleted” for “overexpressing”
Cell culture: LU99 MTAP(-/-)deleted cells were cultured with medium containing 10% fetal bovine serum at 37°C in 5% carbon dioxide. Only cells in the logarithmic growth phase could be used for the test.
as §2, with “on LU99” for “on HCT-116”, “dioxide. 40” for “dioxide. 80”, “added to” for “added into”

Compound	IC50 (HCT-116 wild-type cells) [nM]	IC50 [1] [nM]	IC50 [2] [nM]	IC50 [3] [nM]
CC1OCc2c1c(N)nc1cnc(C(=O)N(C)C3COC(C)(C)c4cc(C(F)(F)F)ccc43)cc21 (centres unmarked) [Example 18, 4-Amino-N-(1,1-dimethyl-7-(trifluoromethyl)isochroman-4-yl)-N,3-dimethyl-1,3-dihydrofuro[3,4-c][1,7]naphthyridine-8-carboxamide]	3080	38.4	3970	62.9
CN(C(=O)c1ccc2nc(N)c3c(cnn3C)c2c1)[C@@H]1COC(C)(C)c2cc(C(F)(F)F)ccc21 [Example 21, (S)-4-amino-N-(1,1-dimethyl-7-(trifluoromethyl)isochroman-4-yl)-N,3-dimethyl-3H-pyrazolo[3,4-c]quinoline-8-carboxamide]	4370	20.8	2820	33.7
CN(C(=O)c1ccc2nc(N)c3c(c2c1)CCOC3)[C@@H]1COC(C)(C)c2cc(C(F)(F)F)ccc21 [Example 23]	4860	99.4	3170	79.5
CN(C(=O)c1cc2c3c(c(N)nc2cn1)COC3)[C@H]1COC(C)(C)c2cc(C(F)(F)F)ccc21 [Example 25, (R)-4-Amino-N-(1,1-dimethyl-7-(trifluoromethyl)isochroman-4-yl)-N-methyl-1,3-dihydrofuro[3,4-c][1,7]naphthyridine-8-carboxamide]	> 10000	817	> 10000	503
CN(C(=O)c1cc2c3c(c(N)nc2cn1)COC3)[C@@H]1COC(C)(C)c2cc(C(F)(F)F)ccc21 [Example 26, (S)-4-Amino-N-(1,1-dimethyl-7-(trifluoromethyl)isochroman-4-yl)-N-methyl-1,3-dihydrofuro[3,4-c][1,7]naphthyridine-8-carboxamide]	2050	11	1310	14.9
CN(C(=O)c1cc2c(cn1)nc(N)c1cnn(C)c12)[C@H]1COC(C)(C)c2cc(C(F)(F)F)ccc21 [Example 27, (R)-4-amino-N-(1,1-dimethyl-7-(trifluoromethyl)isochroman-4-yl)-N,1-dimethyl-1H-pyrazolo[4,3-c][1,7]naphthyridine-8-carboxamide]	> 10000	74	9590	51.9
CN(C(=O)c1cc2c3c(c(N)nc2cn1)COC3)C1COC2(CCC2)c2cc(C(F)(F)F)ccc21 (centres unmarked) [Example 29, 4-Amino-N-methyl-N-(7'-(trifluoromethyl)spiro[cyclobutane-1,1'-isochroman]-4'-yl)-1,3-dihydrofuro[3,4-c][1,7]naphthyridine-8-carboxamide]	1790	17	1030	23.7
Cc1nn(C)c2c1c(N)nc1ccc(C(=O)N(C)[C@@H]3COC(C)(C)c4cc(C(F)(F)F)ccc43)cc12 [Example 35, (S)-4-amino-N-(1,1-dimethyl-7-(trifluoromethyl)isochroman-4-yl)-N,1,3-trimethyl-1H-pyrazolo[4,3-c]quinoline-8-carboxamide]	2100	15	858	24.2
CN(C(=O)c1ccc2nc(N)c3ncncc3c2c1)[C@@H]1COC(C)(C)c2cc(C(F)(F)F)ccc21 [Example 36, N-[(4S)-1,1-dimethyl-7-(trifluoromethyl)isochroman-4-yl](5-aminopyrimido[4,5-c]quinolin-9-yl)-N-methylformamide]	2840	95.1	668	116
CN(C(=O)c1ccc2nc(N)c3cnccc3c2c1)[C@@H]1COC(C)(C)c2cc(C(F)(F)F)ccc21 [Example 37, (S)-5-amino-N-(1,1-dimethyl-7-(trifluoromethyl)isochroman-4-yl)-N-methylbenzo[c][2,7]naph thyridine-9-carboxamide]	4100	33.4	810	36.4

The next molecules have a lower IC50 (HCT-116 wild-type cells) than those just listed; values first:

IC50 (HCT-116 wild-type cells) [nM]	IC50 [1] [nM]	Compound	IC50 [2] [nM]	IC50 [3] [nM]
1250	13.4	CN(C(=O)c1ccc2nc(N)c3ccncc3c2c1)C1COC(C)(C)c2cc(C(F)(F)F)ccc21 (centres unmarked) [Example 22, 5-amino-N-(1,1-dimethyl-7-(trifluoromethyl)isochroman-4-yl)-N-methylbenzo[c][2,6]naph thyridine-9-carboxamide]	771	25.5
156	15.1	CN(C(=O)c1cc2c(cc1Cl)nc(N)c1cnn(C)c12)C1COC(C)(C)c2cc(C(F)(F)F)ccc21 (centres unmarked) [Example 24, 4-amino-7-chloro-N-(1,1-dimethyl-7-(trifluoromethyl)isochroman-4-yl)-N,1-dimethyl-1H-pyrazolo[4,3-c]quinoline-8-carboxamide]	252	16.4
226	10.3	CN(C(=O)c1cc2c(cn1)nc(N)c1cnn(C)c12)[C@@H]1COC(C)(C)c2cc(C(F)(F)F)ccc21 [Example 28, (S)-4-amino-N-(1,1-dimethyl-7-(trifluoromethyl)isochroman-4-yl)-N,1-dimethyl-1H-pyrazolo[4,3-c][1,7]naphthyridine-8-carboxamide]	376	10.7
767	5.3	CN(C(=O)c1ccc2nc(N)c3cnn(C)c3c2c1)C1COC2(CCC2)c2cc(C(F)(F)F)ccc21 (centres unmarked) [Example 30]	862	10.9
1530	5.7	CN(C(=O)c1ccc2nc(N)c3cnn(C)c3c2c1)[C@@H]1COC(C)(C)c2cc(-c3cnn(C(F)(F)F)c3)ccc21 [Example 32, (S)-4-amino-N-(1,1-dimethyl-7-(1-(trifluoromethyl)-1H-pyrazol-4-yl)isochroman-4-yl)-N,1-dimethyl-1H-pyrazolo[4,3-c]quinoline-8-carboxamide]	1890	6.8
1340	5.3	CN(C(=O)c1ccc2nc(N)c3cnn(C)c3c2c1)[C@@H]1COC(C)(C)c2cc(N3CCOCC3)ccc21 [Example 33, (S)-4-amino-N-(1,1-dimethyl-7-morpholinoisochroman-4-yl)-N,1-dimethyl-1H-pyrazolo[4,3-c]quinoline-8-carboxamide]	2260	8.6
1620	8.5	Cc1ncc(-c2ccc3c(c2)C(C)(C)OC[C@H]3N(C)C(=O)c2ccc3nc(N)c4cnn(C)c4c3c2)cn1 [Example 34, (S)-4-amino-N-(1,1-dimethyl-7-(2-methylpyrimidin-5-yl)isochroman-4-yl)-N,1-dimethyl-1H-pyrazolo[4,3-c]quinoline-8-carboxamide]	1660	5.2
